Data from patent US12337005B2, “Methods of treating thrombosis” (UNIVERSITY OF IOWA RESEARCH FOUNDATION, priority 2020, dated 2025).

Assays:
[1] = tested on: mouse platelets; test: Glucose uptake assay, mouse platelets; assay type: cell-based; settings: mouse platelets stimulated with convulxin or thrombin
Description: Glucose uptake was determined in activated versus non-activated platelets using 10 mM ^14C-2-deoxy-glucose. Washed platelets (2×10^8/mL) treated with vehicle (DMSO) or ML265 (50 and 100 μM) were incubated in 1× Tyrode buffer and stimulated with convulxin or thrombin for 10 minutes, placed on ice and then centrifuged at 4000 rpm for 5 minutes. The pellets were washed with cold 1×PBS and solubilized in 1N NAOH. Radioactive counts were determined using a Perkin Elmer TriCarb 2800TR liquid scintillation counter.

[2] = tested on: human platelets; test: Lactate measurement, human platelets; assay type: cell-based; settings: human platelets stimulated with convulxin or thrombin; ML265 pre-treated (50 or 100 μM)
Description: Washed platelets (5×10^8 platelets/mL) in DMEM (5 mM HEPES, 25 mM glucose, 1 mM pyruvate and 2 mM glutamine) were pre-treated with 50 or 100 μM of ML265 or vehicle (DMSO) for 10 mins and stimulated by convulxin (200 ng/ml) for 1 hr. Cells were centrifuged and supernatant was collected. Levels of L-lactate in supernatant were determined using a glycolysis cell based assay kit (Cayman; Item No. 600450) according to the manufacturer's instructions.

[3] = tested on: human platelets; test: Metabolomic analysis of human platelets; assay type: cell-based
Description: Human washed platelets (3×10^8 cells in 300 μl) were treated with ML265 (100 μM) or DMSO for 10 mins and stimulated by convulxin for 10 minutes. Cells were then fixed by adding 80% methanol and sent to Metabolon Inc. (Morrisville, NC, USA) for metabolomic analysis. Briefly, samples were homogenized and subjected to methanol extraction then split into aliquots for analysis by ultra-high-performance liquid chromatography/mass spectrometry (UHPLC/MS) in the positive (two methods) and negative (two methods) mode. Metabolites were then identified by automated comparison of ion features to a reference library of chemical standards followed by visual inspection for quality control as previously described (Dehaven et al., 2010). Metaboanalyst 4.0 feature PatternHunter was used for finding the metabolites showing correlation (≥0.5) with specific trends (Xia et al., 2009). The metabolites obtained after PatternHunter analysis have been represented as a heatmap. Furthermore, to understand the functional role of the changes in concentration of these metabolites, the pathway analysis was performed using Metaboanalyst 4.0. The Global Ancova and Relative-betweenness Centrality topological measures were used to identify the highly impacted pathways with KEGG human metabolic library as the reference. The False Discovery Rate corrected pathway terms with P≤0.05 were considered significant.

[4] = tested on: murine platelets; test: In vitro platelet aggregation, mouse platelet-rich plasma; assay type: cell-based; settings: convulxin, collagen, PAR4 and ADP, ML265 50 and 100 μM
Description: (§1) Platelet rich plasma (PRP) or washed platelets (2×10^8/ml) treated with vehicle (DMSO) or ML265 (50 and 100 μM) were stirred (1200 rpm) at 37° C. for 2 min in a whole blood/optical lumi-aggregometer (Chrono-log; model 700-2) before the addition of agonists (convulxin, collagen, thrombin, PAR4, TRAP (PAR1 agonist) or adenosine diphosphate [ADP]). Aggregation was measured as percent change in light transmission, where 100% refers to transmittance through the blank sample (PRP/Buffer). Platelet dense granule secretion was determined by measuring the release of ATP using luciferin-luciferase reagent. To examine the effect of ML265 on ATP secretion, washed platelets were pretreated with vehicle (DMSO) or ML265 (50 and 100 μM) for 10 minutes before stimulation with various agonists. ATP release was performed in a lumi-aggregometer (Chrono-log; model 700-2) at 37° C.

[5] = tested on: human platelets; test: ATP secretion from dense granules, human platelets; assay type: cell-based; settings: stimulus-activated human platelets pretreated with ML265
Description: as §1

[6] = tested on: murine platelets; test: ATP secretion from dense granules, mouse platelets; assay type: cell-based; settings: stimulus-activated mouse platelets pretreated with ML265
Description: as §1

[7] = tested on: PI3 kinase-mediated Akt/GSK3β signaling; test: Western blot of Akt/GSK3β phosphorylation, mouse platelets; assay type: cell-based; settings: murine platelets, convulxin or thrombin mediated, ML265 50 and 100 μM
Description: Platelet proteins were separated on 4-20% SDS-PAGE (sodium dodecyl sulfate-polyacrylamide gel electrophoresis) gradient gels and electrophoretic transferred to PVDF (polyvinylidene fluoride) membrane by using Bio-Rad western blotting system. For PKM2 dimer and tetramer study 6% native gels are used. Membranes were blocked with 5% BSA or skimmed milk in 10 mM Tris-HCl, 150 mM NaCl, pH 8.0 (TBS) containing 0.05% Tween-20 for one hour at room temperature. Blots were incubated for overnight with primary antibody, followed by horseradish peroxidase-labeled secondary antibody for one hour. Blots were developed using enhanced chemiluminescence and quantified using Image J software from NIH (Bethesda, MD, USA).

[8] = tested on: platelets from obese mice; test: Platelet aggregation, platelets from obese mice; assay type: cell-based, mouse; settings: collagen (1 μg/mL) and thrombin (0.02 U/mL)
From the text: FIGS. 16A-16D. ML265 inhibits platelet aggregation and arterial thrombosis in pre-existing comorbid condition of obesity. Wild-type (C57BL6/J) mice fed a chow and high-fat diet (Cat #TD.06414, Envigo, 60% Kcal from fat) for 4 months. (A) Blood glucose levels (B) Blood glucose levels during the insulin tolerance test. Statistics (A & B): Two-way ANOVA with Tukey's multiple comparisons test (*P<0.05, **P<0.01, ***P<0.001, ****P<0.0001; n=10 mice/group). (C) Platelet rich plasma or washed platelets from obese mice were pretreated with vehicle or ML265 and stimulated with agonists including collagen (1 μg/mL) and thrombin (0.02 U/mL). The results are represented as percent change light transmission after subtracting the blank (platelet poor plasma/Tyrode's buffer). […]
as §1, with “To examine the effect of ML265 on ATP secretion, washed platelets were pretreated with vehicle (DMSO) or ML265 (50 and 100 μM) for 10 minutes before stimulation with various agonists. ATP release was performed in a lumi-aggregometer (Chrono-log; model 700-2) at 37° C.” left out

[9] = ML265 100 μM, convulxin-stimulated human platelets

Q: What does the source list for Cn1c2cc([S+](C)[O-])sc2c2cnn(Cc3cccc(N)c3)c(=O)c21 (centres unmarked) [ML265, 6-[(3-aminophenyl)methyl]-4,6-dihydro-4-methyl-2-(methylsulfinyl)-5H-thieno[2′,3′:4,5]pyrrolo[2,3-d]pyridazine-5-one]?
A: glucose uptake [1]: reduced; lactate production [2]: significantly decreased; levels of arachidonic acid and 12-HETE [3, 9]: altered; metabolites in the glycolytic pathway, including glucose uptake and lactate production [3, 9]: altered; level of free fatty acids and palmitate ([3]; ML265 100 μM, human platelets): altered; palmitate ([3]; ML265 pre-treated activated human platelets compared to control): downregulated; arachidonate level ([3]; convulxin-stimulated human platelets pre-treated with ML265, vs convulxin alone): further decrease; glycerophospholipid metabolism ([3]; pre-treatment of human platelets with ML265): downregulated; stimulus-dependent platelet aggregation [4]: reduced; dense-granule secretion (ATP release) [5]: significant decrease; dense-granule secretion (ATP release) [6]: significant decrease; Akt phosphorylation [7]: attenuated; GSK3β phosphorylation [7]: attenuated; platelet aggregation in pre-existing comorbid condition of obesity [8]: inhibited
